Test results published in PMC10552397 (Cell Communication and Signaling : CCS, 2023).

How the values were obtained:
EFEMP1 = biological target: T1, EFEMP1 (Homo sapiens, UniProt Q12805); assay: TPP-TR/RTSA, EFEMP1; format: binding
T1 construct: endogenous in cells; host or cells: HeLa wt cells
T1 sequence (Q12805 18-493): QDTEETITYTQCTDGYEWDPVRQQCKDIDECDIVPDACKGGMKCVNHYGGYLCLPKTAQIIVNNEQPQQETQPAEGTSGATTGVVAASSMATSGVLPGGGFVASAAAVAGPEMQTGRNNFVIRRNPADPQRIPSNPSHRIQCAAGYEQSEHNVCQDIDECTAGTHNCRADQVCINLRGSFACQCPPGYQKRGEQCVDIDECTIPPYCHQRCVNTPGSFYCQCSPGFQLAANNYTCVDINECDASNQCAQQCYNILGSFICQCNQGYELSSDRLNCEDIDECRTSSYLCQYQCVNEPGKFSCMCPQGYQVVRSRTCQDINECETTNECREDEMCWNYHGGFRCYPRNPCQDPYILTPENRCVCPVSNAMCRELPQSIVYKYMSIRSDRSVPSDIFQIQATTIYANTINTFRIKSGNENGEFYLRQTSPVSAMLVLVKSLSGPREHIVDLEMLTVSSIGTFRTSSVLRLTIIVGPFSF
Method: (§1) TPP was performed essentially as described, but with major modifications to the TMT labeling sets and statistical data analysis for TPP-TR.
(§2) Adherent cells were washed in the dish once with DPBS and harvested by Trypsin–EDTA (0.25%, Thermo Fisher Scientific, Waltham, MA, USA, #25,200,056) treatment. […]
(§3) After temperature treatment, samples were supplemented with lysis buffer (final concentrations: 0.36 U/µL benzonase, 1.5 mM MgCl2, 1 mM Na3VO4, 10 mM NaF, 2.5 mM Na4P2O7, 0.8% w/v NP-40) for 1 h on ice. […] The total protein concentration of the resulting cell extracts containing the fraction of soluble, non-denatured proteins was determined (Pierce 660 nm Protein Assay, BSA as standard). […] The two (37 °C or 50 °C) x ten (concentrations) x three (replicates) = 60 TPP-CCR samples and two (treatment and control) x ten (temperatures) x three (replicates) = 60 TPP-TR samples were analyzed by LC–MS/MS. GRASP55 was additionally quantified from the TPP-TR samples by immunoblotting as described in the respective section.
(§4) For TPP-CCR, SP3 was performed as described with slight modifications to the original protocol using on average 5 µg total protein per sample and resulting in theoretically 5 µg peptides in 22 µL 50 mM triethylammonium bicarbonate per sample. […] This volume was calculated such that the lowest two temperature samples (36.5 °C and 41.2 °C) contained 10 µg total protein on average. […]

SDC4 = biological target: T2, SDC4 (Homo sapiens, UniProt P31431); assay: TPP-TR/RTSA, SDC4; format: binding
T2 construct: endogenous in cells; host or cells: HeLa wt cells
T2 sequence (P31431 19-198): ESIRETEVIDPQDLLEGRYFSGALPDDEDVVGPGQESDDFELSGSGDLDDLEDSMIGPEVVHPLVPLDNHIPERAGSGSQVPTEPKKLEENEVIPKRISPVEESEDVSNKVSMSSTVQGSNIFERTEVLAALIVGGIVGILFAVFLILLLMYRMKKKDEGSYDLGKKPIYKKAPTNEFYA
Method: as §1, §2, §3, §4

JUNB = assay: TPP-TR/RTSA, JUNB; format: binding, Homo sapiens; conditions: 100 nM vs DMSO, 6 h, HeLa wt
Method: as §1, §2, §3, §4

GRASP55 = GRASP55 (Homo sapiens, UniProt Q9H8Y8); assay: Thermal proteome profiling temperature range (TPP-TR/RTSA), GRASP55; format: binding; parameters: endogenous in cells; host or cells: HeLa wt cells; conditions: 100 nM, 6 h
Method: as §1, §2, §3, §4

[1] = 100 nM vs DMSO, 6 h, HeLa wt, read-out: Mean_dTm

## CCCCCC1=C/C(=C/c2[nH]c(-c3ccc[nH]3)cc2OC)N=C1C [Prodigiosin, prodigiosin]
EFEMP1; [1]
  ΔTm at 0.1 µM: 1.55 °C
EFEMP1; RTSA distance score
  distancescore: 13.326
SDC4; [1]
  ΔTm at 0.1 µM: 0.55 °C
SDC4; RTSA distance score
  distancescore: 10.308
JUNB
  Mean_dTm: 2.343
GRASP55; HeLa wt, vs DMSO
  mean melting point difference of GRASP55 (TPP-TR): 2.1 °C
GRASP55; intensities at 36.5 °C
  effect on GRASP55 abundance: No effect
